Broadly, the IC50 is the midpoint of a concentration-inhibition curve. A lower IC50 goes with greater potency.

The results in this text go back to patent US20220265817A1, “THERAPEUTIC COMPOSITIONS AND METHODS FOR TREATING HEPATITIS B” (priority 2017, published 2022).

One series has as its system HBV genome. In words: siRNA IC50 (Table A). Also noted: species or system Hepatitis B virus.
Series [1] has as its system HBV cccDNA-dependent precore RNA in DESHAe82 cells. In words: DESHAe82 / DE19 cell culture system, cccDNA-derived precore RNA by qRT-PCR, MacSynergy II. Format: cell-based, Hepatitis B virus. The settings on record: ETV μM: 0.01, 0.0032, 0.001, 0.0003, 0.0001, 3E−05, 0. Here is the method:
In vitro combination studies were conducted using a modification of the assay system described in Cai et al (Antimicrobial Agents Chemotherapy, 2012. Vol 56(8):4277-88). A previously developed HepDE19 cell culture system (Guo et al. J. Virology (2007) 81(22): 12472-12484) supports HBV DNA replication and cccDNA formation in a tetracycline (Tet)-regulated manner, and produces a detectable reporter molecule which is dependent upon the production and maintenance of cccDNA.
In the HepDE19 cell culture system, the reporters are the precore RNA and its cognate protein product, the secreted HBV “e antigen” (HBeAg). In HepDE19 cells, precore RNA and HBeAg are only produced from the cccDNA circular template, because the ORF of HBeAg and its 5′ RNA leader are separated between the opposite ends of the integrated viral genome, and only become contiguous with the formation of cccDNA. Although an assay based on the HepDE19 cell culture system is effective for determining activity, the results of high throughput screening may be complicated because the HBeAg ELISA cross reacts with a viral HBeAg homologue, which is the core antigen (HBcAg) expressed largely in a cccDNA-independent fashion in HepDE19 cells. To overcome this complication, an alternative cell culture system (designated herein as DESHAe82 cell culture system and described in PCT/EP/2015/06838) has been developed which includes an in-frame HA epitope tag in the N-terminal coding sequence of HBeAg in the transgene of DESHAe82 cells, without disrupting any cis-element critical for HBV replication, cccDNA transcription, and HBeAg secretion.
A chemiluminescence ELISA assay (CLIA) for the detection of HA-tagged HBeAg with HA antibody serving as capture antibody and […] has been developed, eliminating the contaminating signal from HBcAg. […] In addition, a protocol for quantitative reverse transcription and polymerase chain reaction (qRT-PCR) that is specific for detection of precore RNA in either DE19 or DESHAe82 cells was developed and is also used for the detection of the cccDNA-dependent mRNA (precore RNA) that is translated to produce HBeAg or HA-HBeAg.
To test the compound combinations, DESHAe82 or DE19 cells (as indicated in examples) were plated in 96 well tissue-culture treated microtiter plates in DMEM/F12 medium supplemented with 10% fetal bovine serum+1% penicillin-streptomycin with Tet, and incubated in a humidified incubator at 37° C. and 5% CO2 overnight. […] The two inhibitors were tested both singly as well as in combinations in a checkerboard fashion such that each test concentration of inhibitor A was combined with each test concentration of inhibitor B to determine their combination effects on inhibition of cccDNA formation and expression. Untreated negative control samples (0.5% DMSO or media only) were included on each plate in multiple wells. Following a 9 day-incubation, media was removed and cells were subjected to RNA extraction to measure the cccDNA-dependent precore mRNA level. Total cellular RNAs were extracted using a 96-well format total RNA isolation kit ([…]-NAGEL, Cat. 740466.4) by following the instruction of manufacturer (vacuum manifold processing, two more extra washes of Buffer RA4). RNA samples were eluted in RNAase-free water. Quantitative real-time RT-PCR was performed with a Roche LightCycler480 and RNA Master Hydrolysis probe (Catalog number 04991885001, Roche) using primers and conditions for specific detection of cccDNA-dependent precore RNA. GAPDH mRNA levels were also detected by standard methods and used to normalize the precore RNA levels.
Background: In qPCR the cycle at which signal appears reflects the starting amount.

[UNA] = unlocked nucleic acid; m = 2'-O-methyl; r = 2'-OH (RNA)

In turn, “4m: siRNA duplex SEQ ID NO: 7 and 8 targeting the HBV genome (chain 1 GCUCAGUUUACUAGUGCCAUU; chain 2 UGGCACUAGUAAACUGAGCUU; chain 1: sugars from the 5' end [UNA]rmmrmrrrrrrrrrrrmr[UNA][UNA], backbone not given here; chain 2: sugars from the 5' end rrrrrrrrrmrrrrrrrmr[UNA][UNA], backbone not given here) [Compound 4m]” gave an IC50 in the series on HBV genome of 0.31 nM.
Still for that read-out and setting: next, “5m: siRNA duplex SEQ ID NO: 9 and 10 targeting the HBV genome (chain 1 CCGUGUGCACUUCGCUUCAUU; chain 2 UGAAGCGAAGUGCACACGGUU; chain 1: sugars from the 5' end [UNA]rrrmmrrrrrmrrrmrrrr[UNA], backbone not given here; chain 2: sugars from the 5' end r11 m1 r5 m1 r3, backbone not given here) [Compound 5m]”: 0.06 nM; “6m: siRNA duplex SEQ ID NO: 11 and 12 targeting the HBV genome (chain 1 CUGGCUCAGUUUACUAGUGUU; chain 2 CACUAGUAAACUGAGCCAGUU; chain 1: sugars from the 5' end [UNA]mmmrrrrrrrrrrmrmrrr[UNA], backbone not given here; chain 2: sugars from the 5' end rrrrrmrrrrrrmrmrrrrrr, backbone not given here) [Compound 6m]”: 0.05 nM; “7m: siRNA duplex SEQ ID NO: 13 and 14 targeting the HBV genome (chain 1 CCGUGUGCACUUCGCUUCAUU; chain 2 UGAAGCGAAGUGCACACGGUU; chain 1: sugars from the 5' end [UNA]rrrmmrrrrrmrrrmrrr[UNA][UNA], backbone not given here; chain 2: sugars from the 5' end rrrrrrrrrrrmrrrrrmr[UNA][UNA], backbone not given here) [Compound 7m]”: 0.06 nM.
With “8m: siRNA duplex SEQ ID NO: 15 and 16 targeting the HBV genome (chain 1 GCUCAGUUUACUAGUGCCAUU; chain 2 UGGCACUAGUAAACUGAGCUU; chain 1: sugars from the 5' end [UNA]rmrrmrrrrrmrmrrrrr[UNA][UNA], backbone not given here; chain 2: sugars from the 5' end r14 m1 r4 [UNA]2, backbone not given here) [Compound 8m]”, in the series with HBV genome, the IC50 came to 0.24 nM.
Turning to “9m: siRNA duplex SEQ ID NO: 17 and 18 targeting the HBV genome (chain 1 AGGUAUGUUGCCCGUUUGUUU; chain 2 ACAAACGGGCAACAUACCUUU; chain 1: sugars from the 5' end [UNA]mrmrrrmrrrrrmrmrrr[UNA][UNA], backbone not given here; chain 2: sugars from the 5' end rrrrrrmrrrrrrrmrrrm[UNA][UNA], backbone not given here) [Compound 9m]”, in the series on HBV genome, the IC50 turned out to be 0.13 nM.
The molecule “10m: siRNA duplex SEQ ID NO: 19 and 20 targeting the HBV genome (chain 1 GCCGAUCCAUACUGCGGAAUU; chain 2 UUCCGCAGUAUGGAUCGGCUU; chain 1: sugars from the 5' end [UNA]rrmrmrrrrrrmmrmmrr[UNA][UNA], backbone not given here; chain 2: sugars from the 5' end rrrrrrrmrrrrmrrrrmr[UNA][UNA], backbone not given here) [Compound 10m]” registered an IC50 with HBV genome of 0.34 nM.
Same read-out and setting: next, “11m: siRNA duplex SEQ ID NO: 21 and 22 targeting the HBV genome (chain 1 GCCGAUCCAUACUGCGGAAUU; chain 2 UUCCGCAGUAUGGAUCGGCUU; chain 1: sugars from the 5' end [UNA]rrmrmrrrrrrmmrmmrrr[UNA], backbone not given here; chain 2: sugars from the 5' end rrrrrrrmrrrrmrrrrmrrr, backbone not given here) [Compound 11m]”: 0.31 nM; “12m: siRNA duplex SEQ ID NO: 23 and 24 targeting the HBV genome (chain 1 GCCGAUCCAUACUGCGGAAUU; chain 2 UUCCGCAGUAUGGAUCGGCUU; chain 1: sugars from the 5' end [UNA]rrmrmrrrrrrmmrrmrrr[UNA], backbone not given here; chain 2: sugars from the 5' end rrrrrrrmrrrrmrrrrmrrr, backbone not given here) [Compound 12m]”: 0.16 nM; “13m: siRNA duplex SEQ ID NO: 25 and 26 targeting the HBV genome (chain 1 GCCGAUCCAUACUGCGGAAUU; chain 2 UUCCGCAGUAUGGAUCGGCUU; chain 1: sugars from the 5' end [UNA]rrmrmrrrrrrmmrrmrr[UNA][UNA], backbone not given here; chain 2: sugars from the 5' end rrrrrrrmrrrrmrrrrmr[UNA][UNA], backbone not given here) [Compound 13m]”: 0.2 nM.
Still for that read-out and setting: then “14m: siRNA duplex SEQ ID NO: 27 and 28 targeting the HBV genome (chain 1 GCUCAGUUUACUAGUGCCAUU; chain 2 UGGCACUAGUAAACUGAGCUU; chain 1: sugars from the 5' end [UNA]rmrrmrrrrrmrmrrrrrr[UNA], backbone not given here; chain 2: sugars from the 5' end r14 m1 r6, backbone not given here) [Compound 14m]”, with 0.16 nM; and “15m: siRNA duplex SEQ ID NO: 29 and 30 targeting the HBV genome (chain 1 CUGGCUCAGUUUACUAGUGUU; chain 2 CACUAGUAAACUGAGCCAGUU; chain 1: sugars from the 5' end [UNA]mmrrmrrrrrmrrrrrrr[UNA][UNA], backbone not given here; chain 2: sugars from the 5' end r14 m1 r4 [UNA]2, backbone not given here) [Compound 15m]”, with 0.17 nM.
As to `C[C@@H](NS(=O)(=O)c1ccc(F)c(C(=O)Nc2ccc(F)c(F)c2)c1)c1cncs1` [Compound 4], the “Average percent inhibition versus negative control (precore RNA)” value was −49.48% in series [1] (Compound 4 0.032 μM); 66.78% in series [1] (Compound 4 0.100 μM); 94.67% in series [1] (Compound 4 0.317 μM); 93.92% in series [1] (Compound 4 1.001 μM); 97.88% in series [1] (Compound 4 3.165 μM); 97.53% in series [1] (Compound 4 10 μM).
